This experiment concerns the target EGFR (human) (UniProt P00533). As to conditions: a431.
Chain of EGFR (human) (P00533 whole entry, looked up): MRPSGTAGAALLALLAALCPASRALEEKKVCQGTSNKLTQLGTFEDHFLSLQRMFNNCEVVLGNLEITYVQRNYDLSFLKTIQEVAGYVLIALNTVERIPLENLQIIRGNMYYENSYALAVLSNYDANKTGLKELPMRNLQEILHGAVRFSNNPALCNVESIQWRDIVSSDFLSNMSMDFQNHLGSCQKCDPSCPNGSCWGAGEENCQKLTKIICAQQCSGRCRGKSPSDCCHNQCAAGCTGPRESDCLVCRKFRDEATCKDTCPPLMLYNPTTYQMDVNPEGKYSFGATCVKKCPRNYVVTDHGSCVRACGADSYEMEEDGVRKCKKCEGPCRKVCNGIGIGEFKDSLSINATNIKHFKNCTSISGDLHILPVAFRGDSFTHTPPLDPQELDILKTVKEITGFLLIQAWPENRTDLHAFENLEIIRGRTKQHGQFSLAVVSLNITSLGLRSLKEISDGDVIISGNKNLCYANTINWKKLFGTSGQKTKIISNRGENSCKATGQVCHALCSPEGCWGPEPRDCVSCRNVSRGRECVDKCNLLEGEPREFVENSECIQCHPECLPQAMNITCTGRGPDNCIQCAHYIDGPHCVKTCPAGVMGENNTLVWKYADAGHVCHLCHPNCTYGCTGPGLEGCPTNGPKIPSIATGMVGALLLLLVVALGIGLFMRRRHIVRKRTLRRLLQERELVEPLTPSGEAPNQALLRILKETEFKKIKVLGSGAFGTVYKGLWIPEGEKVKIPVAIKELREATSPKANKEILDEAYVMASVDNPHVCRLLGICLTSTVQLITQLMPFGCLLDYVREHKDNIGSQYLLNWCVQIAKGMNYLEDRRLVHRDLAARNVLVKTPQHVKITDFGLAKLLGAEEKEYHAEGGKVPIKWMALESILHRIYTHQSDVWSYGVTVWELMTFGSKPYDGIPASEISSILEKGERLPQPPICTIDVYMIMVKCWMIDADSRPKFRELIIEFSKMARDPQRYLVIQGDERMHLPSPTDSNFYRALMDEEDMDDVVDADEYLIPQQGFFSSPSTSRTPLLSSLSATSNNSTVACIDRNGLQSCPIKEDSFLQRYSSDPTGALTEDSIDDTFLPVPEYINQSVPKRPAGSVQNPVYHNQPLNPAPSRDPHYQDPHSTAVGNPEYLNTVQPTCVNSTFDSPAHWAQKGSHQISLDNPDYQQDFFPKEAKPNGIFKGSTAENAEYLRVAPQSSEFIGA
Usually IC50 stands for the concentration that inhibits the measured activity by half. Low values mean inhibition by little substance, high ones a need for much substance. With `OC[C@H](O)COc1ccc2c(c1)sc1ncnc(Nc3ccc(OCc4cccc(F)c4)c(Cl)c3)c12`, the IC50 is at most 5 µM.
The figure for `CCN1CCN(C(=O)/C=C/c2ccc3c(c2)sc2ncnc(Nc4ccc(OCc5cccc(F)c5)c(Cl)c4)c23)CC1` is at most 5 µM; for `CS(=O)(=O)CCNC(=O)CCc1ccc2c(c1)sc1ncnc(Nc3ccc(OCc4cccc(F)c4)c(Cl)c3)c12` it is at most 5 µM; for `CN1CCN(C(=O)Cc2ccc3c(c2)sc2ncnc(Nc4ccc(OCc5cscn5)c(Cl)c4)c23)CC1` it is at most 5 µM.
On to `Fc1cccc(COc2ccc(Nc3ncnc4sc5cc(CCN6CCCC6)ccc5c34)cc2Cl)c1`, for which the IC50 was at most 5 µM.
`O=C(Cc1ccc2c(c1)sc1ncnc(Nc3ccc(OCc4cccc(F)c4)c(Cl)c3)c12)N1CCOCC1` came in with an IC50 of at most 5 µM.
The figure for `OCCN(CCO)CCc1ccc2c(c1)sc1ncnc(Nc3ccc(OCc4cccc(F)c4)c(Cl)c3)c12` is at most 5 µM; for `O=C(/C=C/c1ccc2c(c1)sc1ncnc(Nc3ccc(OCc4cccc(F)c4)c(Cl)c3)c12)N1CCOCC1` it is at most 5 µM.
The figure for `COCCN1CCN(CCc2ccc3c(c2)sc2ncnc(Nc4ccc(OCc5cccc(F)c5)c(Cl)c4)c23)CC1` is at most 5 µM; for `Clc1cc(Nc2ncnc3sc4cc(CCBr)ccc4c23)ccc1OCc1ccccn1` it is at most 5 µM.
The figure for `OC[C@H](O)[C@@H](O)c1ccc2c(c1)sc1ncnc(Nc3ccc(OCc4cccc(F)c4)c(Cl)c3)c12` is at most 5 µM; for `OCCNCCc1ccc2c(c1)sc1ncnc(Nc3ccc(OCc4cccc(F)c4)c(Cl)c3)c12` it is at most 5 µM.
Take `NS(=O)(=O)OCCc1ccc2c(c1)sc1ncnc(Nc3ccc(OCc4ccccn4)c(Cl)c3)c12`: the IC50 is at most 5 µM.
`CN1CCN(CCc2ccc3c(c2)sc2ncnc(Nc4ccc(OCc5cccc(F)c5)c(Cl)c4)c23)CC1`: the IC50 is at most 5 µM.
The figure for `CN(C)[C@H]1CCN(C(=O)Cc2ccc3c(c2)sc2ncnc(Nc4ccc5c(cnn5Cc5cccc(F)c5)c4)c23)C1` is at most 5 µM; for `OCC(O)C(O)c1ccc2c(c1)sc1ncnc(Nc3ccc(OCc4cccc(F)c4)c(Cl)c3)c12` (centres undefined) it is at most 5 µM; for `Fc1cccc(COc2ccc(Nc3ncnc4sc5cc(CCN6CCCCC6)ccc5c34)cc2Cl)c1` it is at most 5 µM.
The figure for `Fc1cccc(COc2ccc(Nc3ncnc4sc5cc(CCBr)ccc5c34)cc2Cl)c1` is at most 5 µM.
For `COCCN(CCOC)CCc1ccc2c(c1)sc1ncnc(Nc3ccc(OCc4cccc(F)c4)c(Cl)c3)c12`, the IC50 is at most 5 µM.
The figure for `COCCN(CCOC)C(=O)Cc1ccc2c(c1)sc1ncnc(Nc3ccc(OCc4ccccn4)c(Cl)c3)c12` is at most 5 µM; for `OCCc1ccc2c(c1)sc1ncnc(Nc3ccc(OCc4cccc(F)c4)c(Cl)c3)c12` it is at most 5 µM; for `OC[C@@H](O)COc1ccc2c(c1)sc1ncnc(Nc3ccc(OCc4cccc(F)c4)c(Cl)c3)c12` it is at most 5 µM.
The figure for `Fc1cccc(COc2ccc(Nc3ncnc4sc5cc(OCCN6CCOCC6)ccc5c34)cc2Cl)c1` is at most 5 µM; for `Fc1cccc(COc2ccc(Nc3ncnc4sc5cc(CCN6CCNCC6)ccc5c34)cc2Cl)c1` it is at most 5 µM; for `CN(C)[C@H]1CCN(C(=O)/C=C/c2ccc3c(c2)sc2ncnc(Nc4ccc(OCc5cccc(F)c5)c(Cl)c4)c23)C1` it is at most 5 µM.
The figure for `CO[C@H]1CCN(CCc2ccc3c(c2)sc2ncnc(Nc4ccc(OCc5cccc(F)c5)c(Cl)c4)c23)C1` is at most 5 µM; for `CN(C)CCNC(=O)CCc1ccc2c(c1)sc1ncnc(Nc3ccc(OCc4cccc(F)c4)c(Cl)c3)c12` it is at most 5 µM; for `O=C(Cc1ccc2c(c1)sc1ncnc(Nc3ccc(OCc4cccc(F)c4)c(Cl)c3)c12)N1CCNCC1` it is at most 5 µM.
In turn, `OCCc1ccc2c(c1)sc1ncnc(Nc3ccc4c(cnn4Cc4cccc(F)c4)c3)c12` returned a 50% inhibitory concentration (IC50) of at most 5 µM.
The figure for `OC[C@H](O)c1ccc2c(c1)sc1ncnc(Nc3ccc4c(cnn4Cc4cccc(F)c4)c3)c12` is at most 5 µM; for `OC[C@@H](O)c1ccc2c(c1)sc1ncnc(Nc3ccc(OCc4cccc(F)c4)c(Cl)c3)c12` it is at most 5 µM; for `O=C(Cc1ccc2c(c1)sc1ncnc(Nc3ccc4c(cnn4Cc4cccc(F)c4)c3)c12)NC1CN2CCC1CC2` (centres undefined) it is at most 5 µM.
The figure for `Fc1cccc(COc2ccc(Nc3ncnc4sc5cc(OCCCN6CCOCC6)ccc5c34)cc2Cl)c1` is at most 5 µM; for `CN1CCN(c2ccc3c(c2)sc2ncnc(Nc4ccc(OCc5ccccn5)c(Cl)c4)c23)CC1` it is at most 5 µM.
The figure for `CS(=O)(=O)CCNC(=O)Cc1ccc2c(c1)sc1ncnc(Nc3ccc4c(cnn4Cc4cccc(F)c4)c3)c12` is at most 5 µM.
`CN1CCN(C(=O)Cc2ccc3c(c2)sc2ncnc(Nc4ccc5c(cnn5Cc5cccc(F)c5)c4)c23)CC1` came in with an IC50 of at most 5 µM.
`OCC(O)c1ccc2c(c1)sc1ncnc(Nc3ccc4c(cnn4Cc4cccc(F)c4)c3)c12` (centres undefined) registered an IC50 of at most 5 µM.
The figure for `Fc1cccc(COc2ccc(Nc3ncnc4sc5cc(OCCN6CCCC6)ccc5c34)cc2Cl)c1` is at most 5 µM; for `O=C(Cc1ccc2c(c1)sc1ncnc(Nc3ccc(OCc4cccc(F)c4)c(Cl)c3)c12)NCCOCCO` it is at most 5 µM; for `OCC(O)c1ccc2c(c1)sc1ncnc(Nc3ccc(OCc4ccccn4)c(Cl)c3)c12` (centres undefined) it is at most 5 µM.
The figure for `OCC(CO)c1ccc2c(c1)sc1ncnc(Nc3ccc(OCc4cccc(F)c4)c(Cl)c3)c12` is at most 5 µM.
The figure for `CCNCCc1ccc2c(c1)sc1ncnc(Nc3ccc(OCc4ccccn4)c(Cl)c3)c12` is at most 5 µM.
As to `COCCNCCc1ccc2c(c1)sc1ncnc(Nc3ccc(OCc4ccccn4)c(Cl)c3)c12`, the IC50 was at most 5 µM.
With `O=C(Cc1ccc2c(c1)sc1ncnc(Nc3ccc(OCc4cccc(F)c4)c(Cl)c3)c12)NCCN1CCOCC1`, the IC50 is at most 5 µM.
In turn, `OCCc1ccc2c(c1)sc1ncnc(Nc3ccc4c(cnn4Cc4ccccn4)c3)c12` came in with an IC50 of at most 5 µM.
The figure for `COC(=O)/C=C/c1ccc2c(c1)sc1ncnc(Nc3ccc(OCc4cccc(F)c4)c(Cl)c3)c12` is at most 5 µM.
The figure for `OC[C@@H](O)[C@H](O)c1ccc2c(c1)sc1ncnc(Nc3ccc(OCc4cccc(F)c4)c(Cl)c3)c12` is at most 5 µM.
The figure for `O=C(Cc1ccc2c(c1)sc1ncnc(Nc3ccc(OCc4ccccn4)c(Cl)c3)c12)N1CCC[C@@H]1CO` is at most 5 µM; for `OCCc1ccc2c(c1)sc1ncnc(Nc3ccc(OCc4ccccn4)c(Cl)c3)c12` it is at most 5 µM; for `CN(C)CCNC(=O)Cc1ccc2c(c1)sc1ncnc(Nc3ccc4c(cnn4Cc4cccc(F)c4)c3)c12` it is at most 5 µM.
`Fc1cccc(COc2ccc(Nc3ncnc4sc5cc(CCN6CCSCC6)ccc5c34)cc2Cl)c1` showed a concentration for half-maximal inhibition (IC50) of at most 5 µM.
The figure for `CN1CCN(CCc2ccc3c(c2)sc2ncnc(Nc4ccc5c(cnn5Cc5cccc(F)c5)c4)c23)CC1` is at most 5 µM; for `Fc1cccc(Cn2ncc3cc(Nc4ncnc5sc6cc(N7CCNCC7)ccc6c45)ccc32)c1` it is at most 5 µM; for `Fc1cccc(Cn2ncc3cc(Nc4ncnc5sc6cc(CCN7CCOCC7)ccc6c45)ccc32)c1` it is at most 5 µM.
The molecule `COC[C@H]1CCCN1CCc1ccc2c(c1)sc1ncnc(Nc3ccc(OCc4cccc(F)c4)c(Cl)c3)c12` showed an IC50 of at most 5 µM.
The figure for `OC[C@@H](O)c1ccc2c(c1)sc1ncnc(Nc3ccc4c(cnn4Cc4cccc(F)c4)c3)c12` is at most 5 µM; for `CN(C)[C@@H]1CCN(C(=O)Cc2ccc3c(c2)sc2ncnc(Nc4ccc(OCc5cscn5)c(Cl)c4)c23)C1` it is at most 5 µM.
The figure for `CN1CCN(C(=O)/C=C/c2ccc3c(c2)sc2ncnc(Nc4ccc(OCc5cccc(F)c5)c(Cl)c4)c23)CC1` is at most 5 µM; for `CN(C)[C@H]1CCN(C(=O)CCc2ccc3c(c2)sc2ncnc(Nc4ccc(OCc5cccc(F)c5)c(Cl)c4)c23)C1` it is at most 5 µM.
The figure for `COC[C@@H]1CCCN1C(=O)Cc1ccc2c(c1)sc1ncnc(Nc3ccc(OCc4ccccn4)c(Cl)c3)c12` is at most 5 µM; for `CN(C)[C@H]1CCN(CCc2ccc3c(c2)sc2ncnc(Nc4ccc(OCc5cccc(F)c5)c(Cl)c4)c23)C1` it is at most 5 µM; for `OCC(O)c1ccc2c(c1)sc1ncnc(Nc3ccc(OCc4cccc(F)c4)c(Cl)c3)c12` (centres undefined) it is at most 5 µM.
For `COCCNCCc1ccc2c(c1)sc1ncnc(Nc3ccc(OCc4cccc(F)c4)c(Cl)c3)c12`, the IC50 is at most 5 µM.
`CS(=O)(=O)CCNCCc1ccc2c(c1)sc1ncnc(Nc3ccc(OCc4ccccn4)c(Cl)c3)c12`: the IC50 was at most 5 µM.
The figure for `CN(C)[C@H]1CCN(C(=O)Cc2ccc3c(c2)sc2ncnc(Nc4ccc(OCc5cscn5)c(Cl)c4)c23)C1` is at most 5 µM; for `CN1CCN(C(=O)Cc2ccc3c(c2)sc2ncnc(Nc4ccc(OCc5cccc(F)c5)c(Cl)c4)c23)CC1` it is at most 5 µM.
The figure for `CN1CCN(CCc2ccc3c(c2)sc2ncnc(Nc4ccc(OCc5ccccn5)c(Cl)c4)c23)CC1` is at most 5 µM; for `OC[C@H](O)c1ccc2c(c1)sc1ncnc(Nc3ccc(OCc4cccc(F)c4)c(Cl)c3)c12` it is at most 5 µM.
The figure for `OC[C@H](O)COc1ccc2c(c1)sc1ncnc(Nc3ccc(OCc4ccccn4)c(Cl)c3)c12` is at most 5 µM.
